How the values were obtained:
skin = experiment: clinical study of skin condition; assay type: in vivo; conditions: clinical study by applicant
[1] = test system: Xgene human skin equivalent culture model; experiment: collagen expression in Xgene human skin equivalent culture model; assay type: cell-based
[2] = test system: MatTek human skin equivalent culture model; experiment: collagen expression in MatTek human skin equivalent culture model; assay type: cell-based

For `CC(=O)C1C(=O)C=C(C)OC1=O` (stereo not shown) [SDA, sodium dehydroacetic acid], the “appearance of fine lines and wrinkles” value (skin) was “unexpected improvement in the appearance of fine lines and wrinkles”, the “skin condition related to reduced oil” value (skin) was “expected improvements in skin condition related to reduced oil” and the collagen expression [1] was “up-regulated collagen expression”. The collagen expression [2] was “up-regulated collagen expression”.
